One assay has as its system 1型糖尿病小鼠. The assay is described as follows: Blood glucose lowering by Glu-insulin in STZ-induced type 1 diabetic mice. Format: in vivo, C57BL/6小鼠. As to conditions: s.c., insulin-equivalent dose 1.5mg/kg.
The next assay deals with AKT信号磷酸化. The assay is described as follows: In vitro activity of Glu-insulin: AKT phosphorylation in HepG2 cells (western blot). Format: cell-based. As to conditions: 10 min, 0-100nM. (Immunoblotting shows a protein as a band on a membrane.)

From patent CN117771387A, “糖响应性复合物及其制备方法和应用” (priority 2022, dated 2024) come the findings set out here.

Take “Glu-insulin: Recombinant human insulin modified with gluconic acid at A1 (N-terminus of the α chain) [葡萄糖酸基胰岛素]”: the “Blood glucose lowering effect compared with recombinant human insulin” value with 1型糖尿病小鼠 is given as “仍有与重组人胰岛素类似的降糖效果”. In addition, in the assay with AKT信号磷酸化, the “Activity on AKT phosphorylation compared with recombinant human insulin” value is “显示出与未修饰的重组人胰岛素相似的活性”.
